Values after ≈ are worked out from the molar mass of the structure shown.
Columns and labels:
[1] = test system: Mycolicibacterium smegmatis; test: Antimycobacterial activity against Mycobacterium smegmatis str. MC2 155 incubated for 30 hrs by turbidometric assay; assay type: functional; settings: str. MC2 155, 30 h
A549 = test: Cytotoxicity against human A549 cells incubated for 48 hrs by SRB assay; assay type: cell-based; settings: A549, 48 h

| Structure (SMILES) | MIC [1] | IC50 (A549) |
| --- | --- | --- |
| O=C(Cn1cc(-c2ccccc2)nn1)Nc1c(C(F)(F)F)n[nH]c1-c1ccccc1 | 35.9 µg/mL (≈ 87.1 µM) | 52.2 µg/mL (≈ 127 µM) |
| O=C(Cn1cc(-c2ccc(OC(F)(F)F)cc2)nn1)Nc1c(C(F)(F)F)n[nH]c1-c1ccccc1 | 35.4 µg/mL (≈ 71.3 µM) | 45.3 µg/mL (≈ 91.2 µM) |
| O=C(Cn1cc(-c2ccc(-c3ccccc3)cc2)nn1)Nc1c(C(F)(F)F)n[nH]c1-c1ccccc1 | 31.8 µg/mL (≈ 65 µM) | 57 µg/mL (≈ 117 µM) |
| CC(C)(C)c1ccc(-c2cn(CC(=O)Nc3c(C(F)(F)F)n[nH]c3-c3ccccc3)nn2)cc1 | > 100 µg/mL | 25.8 µg/mL (≈ 55.2 µM) |
| CCCCCc1ccc(-c2cn(CC(=O)Nc3c(C(F)(F)F)n[nH]c3-c3ccccc3)nn2)cc1 | 35.4 µg/mL (≈ 73.3 µM) | > 100 µg/mL |
| COc1ccc(-c2cn(CC(=O)Nc3c(C(F)(F)F)n[nH]c3-c3ccccc3)nn2)c(C)c1 | 85.6 µg/mL (≈ 188 µM) | 54 µg/mL (≈ 118 µM) |
| Cc1cccc(-c2cn(CC(=O)Nc3c(C(F)(F)F)n[nH]c3-c3ccccc3)nn2)c1 | 29.9 µg/mL (≈ 70.2 µM) | 60.6 µg/mL (≈ 142 µM) |
| O=C(Cn1cc(-c2ccccc2C(F)(F)F)nn1)Nc1c(C(F)(F)F)n[nH]c1-c1ccccc1 | 53 µg/mL (≈ 110 µM) | 64.2 µg/mL (≈ 134 µM) |
| CCOC(=O)c1cn(CC(=O)Nc2c(C(F)(F)F)n[nH]c2-c2ccccc2)nn1 | 27.7 µg/mL (≈ 67.9 µM) | > 100 µg/mL |
| CCCCc1cn(CC(=O)Nc2c(C(F)(F)F)n[nH]c2-c2ccccc2)nn1 | 65.5 µg/mL (≈ 167 µM) | > 100 µg/mL |
| O=C(Cn1cc(COc2cccc3c(C(F)(F)F)cc(=O)oc23)nn1)Nc1c(C(F)(F)F)n[nH]c1-c1ccccc1 | 53.7 µg/mL (≈ 92.8 µM) | > 100 µg/mL |
| O=C(Cn1cc(CNc2cccc(C(F)(F)F)c2)nn1)Nc1c(C(F)(F)F)n[nH]c1-c1ccccc1 | 99.6 µg/mL (≈ 196 µM) | 25.3 µg/mL (≈ 49.7 µM) |
| COc1cccc(NCc2cn(CC(=O)Nc3c(C(F)(F)F)n[nH]c3-c3ccccc3)nn2)c1 | 53.9 µg/mL (≈ 114 µM) | 38.3 µg/mL (≈ 81.3 µM) |
| COc1ccc(NCc2cn(CC(=O)Nc3c(C(F)(F)F)n[nH]c3-c3ccccc3)nn2)cc1OC | 58.3 µg/mL (≈ 116 µM) | > 100 µg/mL |
| COc1cc(NCc2cn(CC(=O)Nc3c(C(F)(F)F)n[nH]c3-c3ccccc3)nn2)cc(OC)c1OC | 78.3 µg/mL (≈ 147 µM) | > 100 µg/mL |
| Cc1cccc(C)c1NCc1cn(CC(=O)Nc2c(C(F)(F)F)n[nH]c2-c2ccccc2)nn1 | 64.1 µg/mL (≈ 136 µM) | 52.9 µg/mL (≈ 113 µM) |

| Structure (SMILES) | MIC [1] | IC50 (A549) |
| --- | --- | --- |
| COc1ccc(C(=O)c2cn(CC(=O)Nc3c(C(F)(F)F)n[nH]c3-c3ccccc3)nn2)cc1 | 15.3 µg/mL (≈ 32.6 µM) | 80.7 µg/mL (≈ 172 µM) |
| COc1ccc(C(=O)c2cn(CC(=O)Nc3c(C(F)(F)F)n[nH]c3-c3ccccc3)nn2)cc1OC | 65.7 µg/mL (≈ 131 µM) | 26.8 µg/mL (≈ 53.6 µM) |
| O=C(Cn1cc(C(=O)c2cn(-c3ccccc3)nc2-c2ccccc2)nn1)Nc1c(C(F)(F)F)n[nH]c1-c1ccccc1 | 28.8 µg/mL (≈ 49.5 µM) | 68 µg/mL (≈ 117 µM) |
| O=C(Cn1cc(C(=O)c2cn(-c3ccccc3)nc2-c2ccc(Cl)cc2)nn1)Nc1c(C(F)(F)F)n[nH]c1-c1ccccc1 | > 100 µg/mL | > 100 µg/mL |
| Cc1ccc(-c2nn(-c3ccccc3)cc2C(=O)c2cn(CC(=O)Nc3c(C(F)(F)F)n[nH]c3-c3ccccc3)nn2)cc1 | 94.5 µg/mL (≈ 158 µM) | > 100 µg/mL |
| COc1ccc(-c2nn(-c3ccccc3)cc2C(=O)c2cn(CC(=O)Nc3c(C(F)(F)F)n[nH]c3-c3ccccc3)nn2)cc1 | 25.3 µg/mL (≈ 41.2 µM) | 59.6 µg/mL (≈ 97.3 µM) |
| NNC(=O)c1cn(CC(=O)Nc2c(C(F)(F)F)n[nH]c2-c2ccccc2)nn1 | 33.9 µg/mL (≈ 85.9 µM) | 67.6 µg/mL (≈ 171 µM) |
| O=C(Cn1cc(C(=O)N/N=C/c2ccc(C(F)(F)F)cc2)nn1)Nc1c(C(F)(F)F)n[nH]c1-c1ccccc1 | > 100 µg/mL | > 100 µg/mL |
| O=C(Cn1cc(C(=O)N/N=C/c2ccccc2C(F)(F)F)nn1)Nc1c(C(F)(F)F)n[nH]c1-c1ccccc1 | 16.2 µg/mL (≈ 29.4 µM) | > 100 µg/mL |
| O=C(Cn1cc(C(=O)N/N=C/c2cccc(Oc3ccccc3)c2)nn1)Nc1c(C(F)(F)F)n[nH]c1-c1ccccc1 | 16.6 µg/mL (≈ 28.9 µM) | > 100 µg/mL |
| COc1ccc(/C=N/NC(=O)c2cn(CC(=O)Nc3c(C(F)(F)F)n[nH]c3-c3ccccc3)nn2)cc1 | 45.6 µg/mL (≈ 88.9 µM) | > 100 µg/mL |
| COc1ccc(/C=N/NC(=O)c2cn(CC(=O)Nc3c(C(F)(F)F)n[nH]c3-c3ccccc3)nn2)cc1OC | 41.3 µg/mL (≈ 76.1 µM) | > 100 µg/mL |
| COc1cccc2c1C(=O)c1c(O)c3c(c(O)c1C2=O)C[C@@](O)(C(=O)CO)C[C@@H]3O[C@H]1C[C@H](N)[C@H](O)[C@H](C)O1 [DOXORUBICIN] |  | 8.5 µg/mL (≈ 15.6 µM) |
| NNC(=O)c1ccncc1 [ISONIAZID] | 12.1 µg/mL (≈ 88 µM) |  |
| CO[C@H]1/C=C/O[C@@]2(C)Oc3c(C)c(O)c4c(O)c(c(/C=N/N5CCN(C)CC5)c(O)c4c3C2=O)NC(=O)/C(C)=C\C=C\[C@H](C)[C@H](O)[C@@H](C)[C@@H](O)[C@@H](C)[C@H](OC(C)=O)[C@@H]1C [RIFAMPIN] | 2.15 µg/mL (≈ 2.61 µM) |  |
